Our source for the EC50, MIC90 and IC50 values is patent US9981956B2, “Small molecule inhibitors of fibrosis” (THE CALIFORNIA INSTITUTE FOR BIOMEDICAL RESEARCH, priority 2013, dated 2018).

≈ marks a conversion by molar mass, not a printed value. Read-outs that look alike come from different tables or passages of the source. Where only a bound is given, the exact number is not on record here.

Assay [1] deals with fibroblast to myofibroblast transdifferentiation (primary human lung fibroblasts and primary rodent HSCs). The experiment in a line: High content imaging and western based assay of fibroblast to myofibroblast transdifferentiation (α-SMA). The assay is classed as cell-based. The settings on record: graded, TGF-β induced fibroblast to myofibroblast transdifferentiation. An excerpt:
A high content imaging assay, based on α-SMA staining and cell morphological changes associated with fibroblast to myofibroblast transdifferentiation, was established using primary human lung fibroblasts and primary rodent HSCs. Conditions, involving serum starvation and subsequent TGF-β treatment, were identified that facilitate robust in vitro transdifferentiation in a miniaturized (384 well plate) format that is amenable to high throughput small molecule screening. A selective ALK-5 TGF-β1 receptor inhibitor (SB-431542) was used as a positive control. […] This assay was used to identify a hit compound (itraconazole) and was used to evaluate focused panels of itraconazole analogues generated from medicinal chemistry efforts.
The activity of Itraconazole and its analogues was confirmed by analyzing changes in gene expression of multiple genes associated with fibroblast to myofibroblast transdifferentiation using biochemical methods (i.e., Western blot and RT-PCR). These 4-day assays were used to evaluate sets of 6 compounds at a time in 4-point dose response fashion.
After 24 hour incubation, cells were treated with the indicated doses of itraconazole for 48 hours in the presence of 10 ng/mL of TGF-β1 in hepatic stellate medium. Following fixation and staining with an anti smooth muscle actin antibody, cell morphology was analyzed with a Cellomics cell insight imaging reader (FIG. 1 for representative images). Cells were analyzed for mean cellular area of a-SMA staining (FIG. 5a) or mean fluorescence intensity of SMA staining (FIG. 5b).
After 24 incubation, medium was changed to assay medium containing TGF-β1 (10 ng/mL) and simultaneously treated with itraconazole (10 μM), SB431542 (10 μM) or vehicle control (FIG. 6).

Assay [2] deals with Candida albicans (ATCC 10231). As to the kind of experiment: Candida albicans anti-fungal MIC potency determination. The format is cell-based. On the procedure:
The wild type Candida albicans (ATCC 10231) was used and Fluconazole, amphotericin B, itraconazole and terbinafine were purchased from Sigma and used as positive controls.
The highest assay concentration for all test compounds and fluconazole was 100 μM. Fluconazole was also tested at the highest concentration of 64 μg/ml, and amphotercin B and terbinafine at 16 and 64 μg/ml. The test compounds were in DMSO stock solution at a concentration of 10 mM. Two stock solutions in DMSO were prepared for fluconazole at 10 mM and 6.4 mg/ml. Amphotericin B and terbinafine stock solutions in DMSO were prepared at 1.6 and 6.4 mg/ml.
Serial dilution of 100× stock solutions: 4 μl of stock solution was added into 196 μl of RPMI1640 (MOPS buffered and free of HEPES and sodium bicarbonate) in the first well of a row of a sterile u-bottom 96-well plate. The rest of the wells was filled with 100 μl RPMI1640. The 2-fold serial dilution was made sequentially by transferring 100 μl solution to the next well and mixing by pipetting, until 11th well. The extra 100 μl in 11th well was discarded. Therefore, the compound wells contained 100 μl of 2× of testing concentrations of drugs in RPMI1640. The 12th well was filled with only 100 μl RPMI1640.
C. albicans 3147 (ATCC 10231) glycerol frozen stock was streaked on Sabouraud dextrose agar (SDA). The plate was incubated at 35° C. ambient atmosphere for 20 h. Single colonies were suspended into sterile saline until turbidity reached 0.1 (1-5×10^6 CFU/ml) using a Siemens turbidity meter. This suspension was diluted 50× in RPMI1640 in a 15 ml conical, and then it was further diluted 20× in RPMI1640 in a 50 ml conical. This gave 1-5×10^3 CFU/ml suspension and was used as inoculum. The cell density in inoculum was plate-counted to be 4.94×10^3 CFU/ml.
The plates were incubated at 35° C. in ambient atmosphere. The photos were taken at 24 h and 48 h. The MIC end points for fluconazole and amphotericin B were read according to the M27-A3 protocol (Reference Method for Broth Dilution Antifungal Susceptibility Testing of Yeasts; Approved Standard-Third Edition, M27-A3 standard published Jan. 1, 2008 by Clinical and Laboratory Standards Institute). The MIC for compounds for test cmpds and terbinafine (not mentioned in M27-A3 protcol) were read as if they were azoles.

In assay [3] the target is Cyp3A4 (Homo sapiens, UniProt P08684). The experiment in a line: Cyp reversible inhibition assay (human liver microsomes). How it is done:
The purpose of this assay was to determine reversible inhibition of Cyp enzyme with a given compound using a substrate probe turnover as the surrogate for inhibition. This was done with human liver microsomes rather an isolated enzyme to account for metabolites of parent drug leading to a potential drug-drug interaction through Cyp inhibition. The substrate turnover (for example conversion of midazolam to hydroxyl midazolam) was monitored by LCMSMS (Q1/Q2=342.2/203.2). Test compounds were tested in a 7-point dose response curve starting from 50 μM to 50 nM (˜3-fold dilution series).
The detailed protocol was as follows: • Prepared test compounds and standard inhibitors working solution (100×) • Pulled microsomes out of the −80° C. freezer to thaw on ice, labeled with the date and put back to freezer immediately after using. • Added 20 μL of the substrate solutions to corresponding wells. • Added 20 μL PB to Blank wells. • Added 2 μL of the test compounds and positive control working solution to corresponding wells. • Added 2 μL MeOH to No Inhibitor wells and Blank wells. • Prepared HLM working solution. • Added 158 μL of the HLM working solution to all wells of incubation plate. • Pre-warmed the plate for about 10 min at 37° C. water bath. • Prepared NADPH cofactor solution. • Added 20 μL NADPH cofactor to all incubation wells. • Mixed and incubated for 10 minutes at 37° C. water bath. • At the time point, terminated the reaction by adding 400 μL cold stop solution (200 ng/mL Tolbutamide in ACN). • Centrifuged the samples at 4000 rpm for 20 minutes to precipitate protein. • Transferred 200 μL supernatant to 200 μL HPLC water and shook for 10 min. • Analyzed samples by LC/MS/MS.
(In general: Liver microsomes are a subcellular fraction often used to study metabolism.)

Where [4] appears, read: ATCC10231, 24 h, read-out: C. Albicans MIC90 at 24 h.
Where [5] appears, read: ATCC10231, 48 h, read-out: C. Albicans MIC90 at 48 h.
[6] abbreviates: Cyp 3A4 midazolam LCMS IC50, human liver microsomes, substrate midazolam.
Setting [7] is: Cyp 3A4 testosterone LCMS IC50, human liver microsomes, substrate testosterone.

Chain of Cyp3A4 (P08684 whole entry): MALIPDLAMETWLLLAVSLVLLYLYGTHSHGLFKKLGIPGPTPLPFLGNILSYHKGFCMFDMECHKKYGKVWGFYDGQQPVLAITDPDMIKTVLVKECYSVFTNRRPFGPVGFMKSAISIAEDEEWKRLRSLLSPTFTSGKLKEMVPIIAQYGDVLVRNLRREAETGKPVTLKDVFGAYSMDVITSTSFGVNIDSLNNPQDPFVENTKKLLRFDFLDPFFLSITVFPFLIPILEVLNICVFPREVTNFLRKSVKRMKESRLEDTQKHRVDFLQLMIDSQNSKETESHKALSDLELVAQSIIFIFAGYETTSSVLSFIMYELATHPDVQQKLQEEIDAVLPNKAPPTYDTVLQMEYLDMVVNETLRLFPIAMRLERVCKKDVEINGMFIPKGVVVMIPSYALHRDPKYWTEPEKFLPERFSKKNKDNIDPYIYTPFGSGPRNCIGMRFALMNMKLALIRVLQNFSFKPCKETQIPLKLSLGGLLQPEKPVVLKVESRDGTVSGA

In general, EC50 refers to the concentration at which the effect is half-maximal. A lower EC50 goes with greater potency. What is called MIC90 is the lowest concentration that inhibits either 90% of growth or 90% of the strains tested, depending on the study. By IC50 is commonly meant the point on the concentration scale where inhibition reaches its midpoint. Consider `CCC(C)n1ncn(-c2ccc(N3CCN(c4ccc(OC[C@@H]5CO[C@@](Cn6nccn6)(c6ccc(Cl)cc6Cl)O5)cc4F)CC3)cc2)c1=O` (stereo partly shown) [Compound 54], for which the EC50 in assay [1] was < 0.5 µM. In addition, the MIC90 in assay [2] (setting [4]) and in assay [2] (setting [5]) was > 100 µM in each case. The IC50 in assay [3] (setting [6]) and in assay [3] (setting [7]) was > 50 µM in each case.

Take `CCC(C)n1ncn(-c2ccc(N3CCN(c4ccc(OC[C@@H]5CO[C@@](Cn6nccn6)(c6ccc(Cl)c(Cl)c6)O5)cc4)CC3)cc2)c1=O` (stereo partly shown) [Compound 36]: in assay [1], the EC50 was in the range of 5 to 30 µM. The MIC90 in assay [2] (setting [4]) and in assay [2] (setting [5]) was > 100 µM throughout. Also, the IC50 in assay [3] (setting [6]) and in assay [3] (setting [7]) was > 50 µM each time.

In assay [1], `CCC(C)n1ncn(-c2ccc(N3CCN(c4ccc(OC[C@@H]5CO[C@@](Cn6ccnc6)(c6ccc(Cl)cc6Cl)O5)cc4)CC3)cc2)c1=O` (stereo partly shown) [Compound 19] yielded an EC50 of 0.5 to 5 µM. The MIC90 in assay [2] (setting [4]) and in assay [2] (setting [5]) was 0.195 µM (≈ 0.137 µg/mL) in each case. Moreover, the IC50 in assay [3] (setting [6]) stood at 0.0031 µM; in assay [3] (setting [7]) it was 0.0069 µM.

As to `CCC(C)n1ncn(-c2ccc(N3CCN(c4ccc(OC[C@@H]5CO[C@@](Cn6nccn6)(c6ccccc6C)O5)cc4)CC3)cc2)c1=O` (stereo partly shown) [Compound 41], in assay [1], the EC50 was 0.5 to 5 µM. Also, the MIC90 in assay [2] (setting [4]) and in assay [2] (setting [5]) was > 100 µM throughout. For the same molecule, the IC50 in assay [3] (setting [6]) and in assay [3] (setting [7]) was > 50 µM each time.

In assay [1], `CCC(C)n1ncn(-c2ccc(N3CCN(c4ccc(OC[C@@H]5CO[C@@](Cn6nccn6)(c6ccc(Cl)cc6)O5)cc4)CC3)cc2)c1=O` (stereo partly shown) [Compound 30] yielded an EC50 of 0.5 to 5 µM. For the same molecule, the MIC90 in assay [2] (setting [4]) and in assay [2] (setting [5]) was > 100 µM throughout. Besides, the IC50 in assay [3] (setting [6]) and in assay [3] (setting [7]) was > 50 µM throughout.

On to `CCC(C)n1ncn(-c2ccc(N3CCN(c4ccc(OC[C@@H]5CO[C@@](Cn6nccn6)(c6ccc(Cl)cc6Cl)O5)c(C#N)c4)CC3)cc2)c1=O` (stereo partly shown) [Compound 79], for which, in assay [1], the EC50 is 0.5 to 5 µM. The MIC90 in assay [2] (setting [4]) and in assay [2] (setting [5]) was > 100 µM throughout. For the same molecule, the IC50 in assay [3] (setting [6]) and in assay [3] (setting [7]) was > 50 µM in each case.

`CCC(C)n1ncn(-c2ccc(N3CCN(c4ccc(OC[C@@H]5CO[C@@](Cc6cccnc6)(c6ccc(Cl)cc6Cl)O5)cc4)CC3)cc2)c1=O` (stereo partly shown) [Compound 26] yielded an EC50 in assay [1] of 0.5 to 5 µM. For the same molecule, the MIC90 in assay [2] (setting [4]) and in assay [2] (setting [5]) was > 100 µM throughout. In addition, the IC50 in assay [3] (setting [6]) is 0.18 µM; in assay [3] (setting [7]) it was 0.283 µM.

Take `CCC(C)n1ncn(-c2ccc(N3CCN(c4ccc(OC[C@@H]5CO[C@@](Cn6nccn6)(c6ccccc6Cl)O5)cc4)CC3)cc2)c1=O` (stereo partly shown) [Compound 32]: the EC50 in assay [1] is 5 to 30 µM. Also, the MIC90 in assay [2] (setting [4]) and in assay [2] (setting [5]) was > 100 µM each time. Further, the IC50 in assay [3] (setting [6]) and in assay [3] (setting [7]) was > 50 µM each time.

On to `CCC(C)n1ncn(-c2ccc(N3CCN(c4ccc(OC[C@@H]5CO[C@@](Cc6ccncc6)(c6ccc(Cl)cc6Cl)O5)cc4)CC3)cc2)c1=O` (stereo partly shown) [Compound 23], for which, in assay [1], the EC50 was < 0.5 µM. The MIC90 in assay [2] (setting [4]) and in assay [2] (setting [5]) was > 100 µM in each case. Besides, the IC50 in assay [3] (setting [6]) worked out at 0.321 µM.

Take `CCC(C)n1ncn(-c2ccc(N3CCN(c4ccc(OC[C@@H]5CO[C@@](Cn6cccn6)(c6ccc(Cl)cc6Cl)O5)cc4)CC3)cc2)c1=O` (stereo partly shown) [Compound 27]: the EC50 in assay [1] was 5 to 30 µM. The MIC90 in assay [2] (setting [4]) and in assay [2] (setting [5]) was > 100 µM each time. The IC50 in assay [3] (setting [6]) and in assay [3] (setting [7]) was > 50 µM in each case.
